In ChEMBL document CHEMBL1201862, “PubChem BioAssay data set” (2004):
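The compound was tested at five concentrations on cells cultured in 96-well plates, with a 48-hour exposure period. Here, GI50 denotes the concentration required for 50% inhibition of growth.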 The source made the active and inactive calls. Rule as the data show it: active = GI50 up to about 1.1 µM and inactive = higher.

Tests used:
Assay in all cases: inhibition of tumour cell growth, NCI panel, 48 h
HCT-116 = system: HCT-116
UO-31 = system: UO-31
SNB-19 = system: SNB-19
CCRF-CEM = system: CCRF-CEM
SW-620 = system: SW-620
PC-3 = system: PC-3
K562 = system: K562
EKVX = system: EKVX
TK-10 = system: TK-10
RPMI-8226 = system: RPMI-8226
HL-60 = system: HL-60
IGROV-1 = system: IGROV-1
SF-539 = system: SF-539
UACC-257 = system: UACC-257
OVCAR-4 = system: OVCAR-4
U-251 = system: U-251
OVCAR-5 = system: OVCAR-5
OVCAR-8 = system: OVCAR-8
T47D = system: T47D
LOX IMVI = system: LOX IMVI

Row | Structure (SMILES) | GI50 (HCT-116) | GI50 (UO-31) | GI50 (SNB-19) | GI50 (CCRF-CEM) | GI50 (SW-620) | GI50 (PC-3) | GI50 (K562) | GI50 (EKVX) | GI50 (TK-10) | GI50 (RPMI-8226) | GI50 (HL-60) | GI50 (IGROV-1) | GI50 (SF-539) | GI50 (UACC-257) | GI50 (OVCAR-4) | GI50 (U-251) | GI50 (OVCAR-5) | GI50 (OVCAR-8) | GI50 (T47D) | GI50 (LOX IMVI)
1 | COc1cccc(C23CCN(C)C(CC(O)C2)C3)c1OC (stereo not given) | > 100 µM (inactive) | > 100 µM (inactive) | > 100 µM (inactive) | > 100 µM (inactive) | > 100 µM (inactive) | > 100 µM (inactive) | > 100 µM (inactive) | > 100 µM (inactive) | > 100 µM (inactive) | > 100 µM (inactive) | > 100 µM (inactive) | > 100 µM (inactive) | > 100 µM (inactive) | > 100 µM (inactive) | > 100 µM (inactive) | > 100 µM (inactive) | > 100 µM (inactive) | > 100 µM (inactive) | > 100 µM (inactive) | > 100 µM (inactive)
2 | CN(Cc1cnc2nc(N)nc(N)c2n1)c1ccc(C(=O)NC(CCC(=O)NC(P(=O)(O)O)P(=O)(O)O)C(=O)O)cc1 (stereo not given) | 4.49 µM (inactive) | 78.2 µM (inactive) | 9.18 µM (inactive) | 41.1 µM (inactive) | 6.84 µM (inactive) | 5.62 µM (inactive) | 4.21 µM (inactive) | > 100 µM (inactive) | > 100 µM (inactive) | 52.4 µM (inactive) | 7.18 µM (inactive) | 36.7 µM (inactive) | 32.6 µM (inactive) | 99.1 µM (inactive) | > 100 µM (inactive) | 6.43 µM (inactive) | 45.8 µM (inactive) | 4.33 µM (inactive) | 26.3 µM (inactive) | 8.32 µM (inactive)
3 | Cc1ccc(NC(Nc2ccc(C)cc2C)=C(/C=C(\Cl)[N+](=O)[O-])[N+](=O)[O-])c(C)c1 | 1.7 µM (inactive) | 5.9 µM (inactive) | 12.9 µM (inactive) | 0.301 µM (active) | 1.91 µM (inactive) | 7.03 µM (inactive) | 1.46 µM (inactive) | 15.2 µM (inactive) | 4.37 µM (inactive) | 1.55 µM (inactive) | 0.592 µM (active) | 6.04 µM (inactive) | 8.85 µM (inactive) | 4.81 µM (inactive) | 3.69 µM (inactive) | 11.5 µM (inactive) | 4.36 µM (inactive) | 2.81 µM (inactive) | 1.72 µM (inactive) | 1.64 µM (inactive)
4 | Cc1c(C)c2c(c(N)c1C#N)C(=O)N(Nc1ccccc1)C2=O | > 100 µM (inactive) | 78.5 µM (inactive) | 39.1 µM (inactive) | 97.1 µM (inactive) | > 100 µM (inactive) | 57.3 µM (inactive) | > 100 µM (inactive) | 43.9 µM (inactive) | 28.1 µM (inactive) | > 100 µM (inactive) | 26.7 µM (inactive) | 42.7 µM (inactive) | 40.1 µM (inactive) | 81.8 µM (inactive) | 33.4 µM (inactive) | 43.5 µM (inactive) | > 100 µM (inactive) | 33 µM (inactive) | 9.95 µM (inactive) | 3.51 µM (inactive)
5 | COc1cc(C)c(C2NC(=O)c3ccccc3N2)cc1C (stereo not given) | 0.34 µM (active) | 0.468 µM (active) | 0.468 µM (active) | 0.352 µM (active) | 0.303 µM (active) | 0.265 µM (active) | 0.125 µM (active) | 1.12 µM (inactive) | 2.28 µM (inactive) | 0.0931 µM (active) | 0.1 µM (active) | 0.472 µM (active) | 0.229 µM (active) | 0.47 µM (active) | 0.342 µM (active) | 0.396 µM (active) | 0.75 µM (active) | 0.942 µM (active) | 0.447 µM (active) | 0.451 µM (active)
6 | [N-]=[N+]=C1CNC(=O)NC1=O | > 100 µM (inactive) | > 100 µM (inactive) | > 100 µM (inactive) | 24.3 µM (inactive) | > 100 µM (inactive) | > 100 µM (inactive) | > 100 µM (inactive) | > 100 µM (inactive) | > 100 µM (inactive) | 28.8 µM (inactive) | 34 µM (inactive) | > 100 µM (inactive) | > 100 µM (inactive) | > 100 µM (inactive) | > 100 µM (inactive) | > 100 µM (inactive) | > 100 µM (inactive) | > 100 µM (inactive) | > 100 µM (inactive) | 60.1 µM (inactive)
7 | CO/N=C(\C(=O)Nc1cncs1)c1csc(NC(c2ccccc2)(c2ccccc2)c2ccccc2)n1 | 5 µM (inactive) | 4.37 µM (inactive) | > 10 µM (inactive) | 3.81 µM (inactive) | > 10 µM (inactive) | 4.38 µM (inactive) | > 10 µM (inactive) | 6.12 µM (inactive) | > 10 µM (inactive) | 4.52 µM (inactive) | 6.85 µM (inactive) | > 10 µM (inactive) | 0.628 µM (active) | > 10 µM (inactive) | > 10 µM (inactive) | > 10 µM (inactive) | > 10 µM (inactive) | > 10 µM (inactive) | 6.52 µM (inactive) | 7.21 µM (inactive)
8 | N#C[BH2-][n+]1ccc(C(=O)NNCc2ccccc2)cc1 | > 100 µM (inactive) | > 100 µM (inactive) | > 100 µM (inactive) | > 100 µM (inactive) | > 100 µM (inactive) | > 100 µM (inactive) | > 100 µM (inactive) | > 100 µM (inactive) | > 100 µM (inactive) | > 100 µM (inactive) | > 100 µM (inactive) | > 100 µM (inactive) | > 100 µM (inactive) | > 100 µM (inactive) | > 100 µM (inactive) | > 100 µM (inactive) | > 100 µM (inactive) | > 100 µM (inactive) | > 100 µM (inactive) | > 100 µM (inactive)
9 | N#Cc1cc(-c2nc3c(F)cccc3s2)ccc1N | > 100 µM (inactive) | > 100 µM (inactive) | > 100 µM (inactive) | 85.5 µM (inactive) | > 100 µM (inactive) | > 100 µM (inactive) | > 100 µM (inactive) | < 0.01 µM (active) | 4.26 µM (inactive) | > 100 µM (inactive) | > 100 µM (inactive) | 6.1 µM (inactive) | > 100 µM (inactive) | > 100 µM (inactive) | > 100 µM (inactive) | > 100 µM (inactive) | > 100 µM (inactive) | > 100 µM (inactive) | 0.912 µM (active) | > 100 µM (inactive)
10 | COc1ccc2c(c1)/c(=C/C#N)c1c3ccccc3[n+](C)n21 | 3.13 µM (inactive) | 16.7 µM (inactive) | 7.16 µM (inactive) | 2.04 µM (inactive) | 4.13 µM (inactive) | 2.8 µM (inactive) | 8.69 µM (inactive) | 2.69 µM (inactive) | 6.9 µM (inactive) | 1.96 µM (inactive) | 3.05 µM (inactive) | 7.62 µM (inactive) | 0.767 µM (active) | 6.14 µM (inactive) | 4.37 µM (inactive) | 2.75 µM (inactive) | 8.63 µM (inactive) | 11.4 µM (inactive) | 2.51 µM (inactive) | 5.97 µM (inactive)
11 | Clc1nc2c(-c3cccs3)ncnc2n1Cc1ccccc1 | 45.2 µM (inactive) | 0.435 µM (active) | 27.4 µM (inactive) | > 68.1 µM (inactive) | > 30.3 µM (inactive) | 26.2 µM (inactive) | 57.3 µM (inactive) | 21.4 µM (inactive) | 23 µM (inactive) | 3.58 µM (inactive) | 24.5 µM (inactive) | 29.6 µM (inactive) | 40 µM (inactive) | 21.2 µM (inactive) | 44.9 µM (inactive) | 38.5 µM (inactive) | > 94.2 µM (inactive) | 49.9 µM (inactive) | 10.1 µM (inactive) | > 86.9 µM (inactive)
12 | OCC(O)C(O)C(O)C1SC(c2ccccc2)=NN1c1ccccc1 (stereo not given) | 69.5 µM (inactive) | 66.2 µM (inactive) | 49.8 µM (inactive) | > 81.5 µM (inactive) | > 100 µM (inactive) | > 57.5 µM (inactive) | > 70.1 µM (inactive) | > 95.7 µM (inactive) | 61.9 µM (inactive) | > 86.3 µM (inactive) | > 88.7 µM (inactive) | > 96.2 µM (inactive) | 41.2 µM (inactive) | > 89.1 µM (inactive) | > 88.3 µM (inactive) | 51.4 µM (inactive) | > 84.9 µM (inactive) | 54 µM (inactive) | > 46.8 µM (inactive) | 50.7 µM (inactive)
13 | COc1ccc(C2SC(C)C(=O)N2c2nc(-c3nc(-c4ccc(Cl)cc4)cs3)cs2)cc1 (stereo not given) | > 100 µM (inactive) | > 100 µM (inactive) | > 100 µM (inactive) | 85.3 µM (inactive) | > 100 µM (inactive) | 66.8 µM (inactive) | > 100 µM (inactive) | > 100 µM (inactive) | > 100 µM (inactive) | > 100 µM (inactive) | 94.4 µM (inactive) | > 100 µM (inactive) | > 100 µM (inactive) | > 100 µM (inactive) | > 100 µM (inactive) | 84.7 µM (inactive) | > 100 µM (inactive) | > 100 µM (inactive) | 46.1 µM (inactive) | > 100 µM (inactive)
14 | CCN(CC)CCC(=O)c1ccc(C)cc1 | 16.3 µM (inactive) | 23 µM (inactive) | > 100 µM (inactive) | 10.1 µM (inactive) | 17 µM (inactive) | 54.7 µM (inactive) | 14.9 µM (inactive) | 31.3 µM (inactive) | > 10 µM (inactive) | 2.62 µM (inactive) | 24.5 µM (inactive) | 17.7 µM (inactive) | 88.3 µM (inactive) | 17.2 µM (inactive) | 23.5 µM (inactive) | > 100 µM (inactive) | 17.3 µM (inactive) | 33.4 µM (inactive) | 14.7 µM (inactive) | 29.9 µM (inactive)
